The target in test [1] is T1, 5-hydroxytryptamine receptor 6 (Homo sapiens, UniProt P50406). The test is described as follows: Displacement of [3H]LSD from 5HT6 receptor expressed in HEK293 cells at 10 uM. In kind it is cell-based. (Loss of bound radioactivity is the signal in a displacement assay; it reports binding, not function.)
Test [2] concerns the target T1, 5-hydroxytryptamine receptor 6. The test is described as follows: Displacement of [3H]LSD from 5HT6 receptor expressed in HEK293 cells. It is filed as cell-based.
Test [3] concerns the target 5-hydroxytryptamine receptor 7 (Homo sapiens) (UniProt P34969). In words: Inhibition of 5HT7 receptor at 10 uM.
Test [4] concerns the target 5-hydroxytryptamine receptor 5A (Homo sapiens) (UniProt P47898). The test is described as follows: Inhibition of 5HT5A receptor at 10 uM.
In test [5] the target is 5-hydroxytryptamine receptor 4 (Homo sapiens) (UniProt Q13639). The test is described as follows: Inhibition of 5HT4 receptor at 10 uM.
The target in test [6] is 5-hydroxytryptamine receptor 2B (Homo sapiens) (UniProt P41595). The test is described as follows: Inhibition of 5HT2B receptor at 10 uM.
The target in test [7] is T2, 5-hydroxytryptamine receptor 3A (Homo sapiens) (UniProt P46098).
T2 sequence (whole entry): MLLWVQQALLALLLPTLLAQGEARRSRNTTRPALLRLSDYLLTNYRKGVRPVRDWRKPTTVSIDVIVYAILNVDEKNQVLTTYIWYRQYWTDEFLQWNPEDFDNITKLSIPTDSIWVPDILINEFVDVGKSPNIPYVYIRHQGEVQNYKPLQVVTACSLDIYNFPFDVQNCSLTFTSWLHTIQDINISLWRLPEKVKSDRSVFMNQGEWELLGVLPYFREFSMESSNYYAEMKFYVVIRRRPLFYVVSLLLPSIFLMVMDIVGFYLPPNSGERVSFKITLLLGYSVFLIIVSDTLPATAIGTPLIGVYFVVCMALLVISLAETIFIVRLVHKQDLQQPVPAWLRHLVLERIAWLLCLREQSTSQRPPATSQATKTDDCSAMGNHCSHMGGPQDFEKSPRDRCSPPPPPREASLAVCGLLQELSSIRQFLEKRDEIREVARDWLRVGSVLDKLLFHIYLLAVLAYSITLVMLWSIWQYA
The test is described as follows: Inhibition of 5HT3 receptor at 10 uM.

Test [8] deals with 5-hydroxytryptamine receptor 1B (Homo sapiens) (UniProt P28222). In words: Inhibition of 5HT1B receptor at 10 uM.
The target of test [9] is T3, 5-hydroxytryptamine receptor 2C (Homo sapiens) (UniProt P28335).
T3 sequence (whole entry): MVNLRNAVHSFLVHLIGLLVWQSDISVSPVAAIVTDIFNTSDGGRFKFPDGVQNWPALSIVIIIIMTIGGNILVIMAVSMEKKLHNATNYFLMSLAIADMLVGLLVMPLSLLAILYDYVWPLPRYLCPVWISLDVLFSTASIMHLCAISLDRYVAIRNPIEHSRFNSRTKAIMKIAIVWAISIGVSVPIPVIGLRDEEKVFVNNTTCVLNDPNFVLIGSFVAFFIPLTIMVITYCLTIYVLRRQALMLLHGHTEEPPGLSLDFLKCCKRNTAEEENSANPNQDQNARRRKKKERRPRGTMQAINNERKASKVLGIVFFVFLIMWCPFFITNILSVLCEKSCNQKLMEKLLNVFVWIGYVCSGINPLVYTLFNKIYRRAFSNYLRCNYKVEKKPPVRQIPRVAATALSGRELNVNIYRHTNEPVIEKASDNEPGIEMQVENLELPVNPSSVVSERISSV
The test is described as follows: Inhibition of 5HT2C receptor at 10 uM.

The target of test [10] is T4, 5-hydroxytryptamine receptor 1A (Homo sapiens) (UniProt P08908).
T4 sequence (whole entry): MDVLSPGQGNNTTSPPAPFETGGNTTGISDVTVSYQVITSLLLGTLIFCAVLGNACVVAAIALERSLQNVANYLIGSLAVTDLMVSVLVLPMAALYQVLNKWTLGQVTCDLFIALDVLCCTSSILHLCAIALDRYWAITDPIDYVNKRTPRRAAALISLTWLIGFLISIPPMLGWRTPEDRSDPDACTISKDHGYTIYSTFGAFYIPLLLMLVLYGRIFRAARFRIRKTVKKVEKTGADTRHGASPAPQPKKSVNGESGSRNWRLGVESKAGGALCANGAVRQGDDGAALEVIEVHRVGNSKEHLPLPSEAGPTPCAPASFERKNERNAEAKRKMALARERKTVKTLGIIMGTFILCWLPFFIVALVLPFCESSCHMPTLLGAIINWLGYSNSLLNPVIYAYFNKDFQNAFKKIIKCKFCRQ
In words: Inhibition of 5HT1A receptor at 10 uM.

Test [11] addresses D(3) dopamine receptor (Homo sapiens) (UniProt P35462). The test is described as follows: Inhibition of dopamine D3 receptor at 10 uM.
The target of test [12] is Sodium-dependent serotonin transporter (Homo sapiens) (UniProt P31645). The test is described as follows: Inhibition of SERT at 10 uM.
Test [13] deals with Histamine H1 receptor (Homo sapiens) (UniProt P35367). The test is described as follows: Inhibition of histamine H1 receptor at 10 uM.
Test [14] deals with T3, 5-hydroxytryptamine receptor 2C (Homo sapiens). The test is described as follows: Binding affinity at 5HT2C receptor at 1 uM.
The target of test [15] is T5, 5-hydroxytryptamine receptor 2A (Homo sapiens, UniProt P28223). In words: Binding affinity at 5HT2A receptor at 1 uM.
The target of test [16] is Histamine H1 receptor (Homo sapiens) (UniProt P35367). In words: Binding affinity at histamine H1 receptor at 1 uM.
Test [17] concerns the target 5-hydroxytryptamine receptor 2B (Homo sapiens) (UniProt P41595). The test is described as follows: Binding affinity at 5HT2B receptor at 1 uM.
Test [18] deals with 5-hydroxytryptamine receptor 7 (Homo sapiens) (UniProt P34969). The test is described as follows: Binding affinity at 5HT7 receptor at 1 uM.
For test [19], the target named is T5, 5-hydroxytryptamine receptor 2A. In words: Binding affinity at 5HT2A receptor.

Active and inactive are the calls of the source. The calls are words filed in the database; no cut-off is given here. Some results are limits rather than exact numbers.

Histamine H1 receptor (Homo sapiens), sequence (P35367 whole entry): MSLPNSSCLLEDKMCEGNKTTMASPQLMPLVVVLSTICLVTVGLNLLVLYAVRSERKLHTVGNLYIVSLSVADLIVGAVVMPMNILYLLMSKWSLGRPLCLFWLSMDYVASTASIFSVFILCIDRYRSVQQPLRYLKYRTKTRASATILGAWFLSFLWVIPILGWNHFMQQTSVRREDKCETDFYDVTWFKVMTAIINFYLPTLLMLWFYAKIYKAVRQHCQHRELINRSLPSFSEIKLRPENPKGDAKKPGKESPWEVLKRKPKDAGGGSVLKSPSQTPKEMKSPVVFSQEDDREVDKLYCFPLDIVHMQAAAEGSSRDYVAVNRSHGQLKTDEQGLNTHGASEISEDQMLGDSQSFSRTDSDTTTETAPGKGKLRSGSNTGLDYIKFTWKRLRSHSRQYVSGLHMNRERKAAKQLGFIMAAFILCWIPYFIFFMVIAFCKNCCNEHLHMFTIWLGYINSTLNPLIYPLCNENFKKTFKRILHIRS
5-hydroxytryptamine receptor 7 (Homo sapiens), sequence (P34969 whole entry): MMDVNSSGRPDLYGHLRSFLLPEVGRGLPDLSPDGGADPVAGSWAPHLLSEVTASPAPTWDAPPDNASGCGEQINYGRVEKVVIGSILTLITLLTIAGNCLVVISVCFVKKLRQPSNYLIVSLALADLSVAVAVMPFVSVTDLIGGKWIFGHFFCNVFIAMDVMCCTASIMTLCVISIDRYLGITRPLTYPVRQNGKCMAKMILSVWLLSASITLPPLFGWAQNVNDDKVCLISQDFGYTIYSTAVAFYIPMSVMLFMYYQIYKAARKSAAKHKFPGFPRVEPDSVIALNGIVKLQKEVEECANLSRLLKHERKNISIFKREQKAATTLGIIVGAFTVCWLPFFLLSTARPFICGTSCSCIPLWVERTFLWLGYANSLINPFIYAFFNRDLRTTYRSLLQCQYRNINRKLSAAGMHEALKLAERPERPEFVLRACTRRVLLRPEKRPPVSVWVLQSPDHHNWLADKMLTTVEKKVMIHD
5-hydroxytryptamine receptor 2B (Homo sapiens), sequence (P41595 whole entry): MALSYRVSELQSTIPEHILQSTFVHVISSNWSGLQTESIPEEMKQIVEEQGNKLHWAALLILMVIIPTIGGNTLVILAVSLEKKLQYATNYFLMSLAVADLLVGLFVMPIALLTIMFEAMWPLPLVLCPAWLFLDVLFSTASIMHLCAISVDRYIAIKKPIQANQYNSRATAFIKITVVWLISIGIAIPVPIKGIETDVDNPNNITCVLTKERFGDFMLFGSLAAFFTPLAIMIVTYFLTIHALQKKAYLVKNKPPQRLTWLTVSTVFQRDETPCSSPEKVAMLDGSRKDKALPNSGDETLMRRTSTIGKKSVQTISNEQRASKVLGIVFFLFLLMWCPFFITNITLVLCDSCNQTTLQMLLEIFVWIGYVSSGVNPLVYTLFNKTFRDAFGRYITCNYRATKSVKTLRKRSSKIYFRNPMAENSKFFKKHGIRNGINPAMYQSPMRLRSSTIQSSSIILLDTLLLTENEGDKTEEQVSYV
T1 sequence (P50406 whole entry): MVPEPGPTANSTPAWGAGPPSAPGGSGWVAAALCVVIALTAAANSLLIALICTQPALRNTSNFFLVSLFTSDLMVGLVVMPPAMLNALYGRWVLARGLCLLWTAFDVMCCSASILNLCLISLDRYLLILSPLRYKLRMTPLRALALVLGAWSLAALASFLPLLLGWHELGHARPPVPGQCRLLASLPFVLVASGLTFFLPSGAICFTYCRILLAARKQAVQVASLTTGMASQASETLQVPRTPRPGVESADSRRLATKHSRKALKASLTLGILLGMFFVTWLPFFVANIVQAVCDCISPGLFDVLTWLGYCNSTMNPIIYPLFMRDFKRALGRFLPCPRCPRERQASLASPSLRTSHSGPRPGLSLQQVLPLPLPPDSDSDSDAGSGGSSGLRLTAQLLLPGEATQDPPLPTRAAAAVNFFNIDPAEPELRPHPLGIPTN
T5 sequence (P28223 whole entry): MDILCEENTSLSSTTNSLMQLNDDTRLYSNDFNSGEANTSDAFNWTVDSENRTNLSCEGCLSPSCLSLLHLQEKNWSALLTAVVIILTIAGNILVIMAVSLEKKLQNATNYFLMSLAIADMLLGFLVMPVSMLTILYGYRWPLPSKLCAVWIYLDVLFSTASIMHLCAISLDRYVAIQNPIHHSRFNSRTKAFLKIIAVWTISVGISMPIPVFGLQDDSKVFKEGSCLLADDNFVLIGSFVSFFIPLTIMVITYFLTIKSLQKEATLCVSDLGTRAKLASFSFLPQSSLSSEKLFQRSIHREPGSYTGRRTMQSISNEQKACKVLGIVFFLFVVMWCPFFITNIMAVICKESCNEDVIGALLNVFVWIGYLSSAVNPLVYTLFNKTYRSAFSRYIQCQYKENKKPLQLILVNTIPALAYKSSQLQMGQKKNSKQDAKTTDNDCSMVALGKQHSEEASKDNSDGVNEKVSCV
D(3) dopamine receptor (Homo sapiens), sequence (P35462 whole entry): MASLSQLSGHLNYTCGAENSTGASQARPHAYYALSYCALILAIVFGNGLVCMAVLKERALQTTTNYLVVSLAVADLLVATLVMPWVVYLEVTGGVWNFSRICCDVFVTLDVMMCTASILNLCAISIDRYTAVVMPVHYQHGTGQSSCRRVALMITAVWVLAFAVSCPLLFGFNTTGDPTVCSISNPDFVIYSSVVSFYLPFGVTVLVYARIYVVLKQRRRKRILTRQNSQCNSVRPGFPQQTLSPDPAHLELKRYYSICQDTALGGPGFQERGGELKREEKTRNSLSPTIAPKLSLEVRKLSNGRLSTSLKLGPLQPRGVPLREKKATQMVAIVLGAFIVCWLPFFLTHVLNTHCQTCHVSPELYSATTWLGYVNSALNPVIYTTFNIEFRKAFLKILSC
5-hydroxytryptamine receptor 5A (Homo sapiens), sequence (P47898 whole entry): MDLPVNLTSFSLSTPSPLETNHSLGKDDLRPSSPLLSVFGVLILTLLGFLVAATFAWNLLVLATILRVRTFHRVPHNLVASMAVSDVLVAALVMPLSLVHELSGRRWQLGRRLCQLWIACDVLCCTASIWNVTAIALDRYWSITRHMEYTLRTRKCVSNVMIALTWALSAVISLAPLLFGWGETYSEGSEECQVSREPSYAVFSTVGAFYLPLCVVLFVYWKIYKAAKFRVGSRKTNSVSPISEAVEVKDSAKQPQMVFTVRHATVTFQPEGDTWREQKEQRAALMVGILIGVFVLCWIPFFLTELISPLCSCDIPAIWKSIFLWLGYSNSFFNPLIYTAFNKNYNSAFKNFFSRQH
5-hydroxytryptamine receptor 1B (Homo sapiens), sequence (P28222 whole entry): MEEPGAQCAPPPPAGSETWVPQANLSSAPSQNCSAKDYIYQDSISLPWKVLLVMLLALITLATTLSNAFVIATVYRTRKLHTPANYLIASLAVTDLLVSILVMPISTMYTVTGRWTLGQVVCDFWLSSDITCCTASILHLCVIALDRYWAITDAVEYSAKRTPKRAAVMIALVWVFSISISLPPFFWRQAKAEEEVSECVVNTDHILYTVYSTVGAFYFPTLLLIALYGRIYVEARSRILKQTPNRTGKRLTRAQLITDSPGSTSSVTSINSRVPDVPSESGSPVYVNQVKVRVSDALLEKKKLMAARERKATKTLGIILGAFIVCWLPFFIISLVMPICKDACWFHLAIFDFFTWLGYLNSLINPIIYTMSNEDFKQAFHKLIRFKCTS
Sodium-dependent serotonin transporter (Homo sapiens), sequence (P31645 whole entry, looked up): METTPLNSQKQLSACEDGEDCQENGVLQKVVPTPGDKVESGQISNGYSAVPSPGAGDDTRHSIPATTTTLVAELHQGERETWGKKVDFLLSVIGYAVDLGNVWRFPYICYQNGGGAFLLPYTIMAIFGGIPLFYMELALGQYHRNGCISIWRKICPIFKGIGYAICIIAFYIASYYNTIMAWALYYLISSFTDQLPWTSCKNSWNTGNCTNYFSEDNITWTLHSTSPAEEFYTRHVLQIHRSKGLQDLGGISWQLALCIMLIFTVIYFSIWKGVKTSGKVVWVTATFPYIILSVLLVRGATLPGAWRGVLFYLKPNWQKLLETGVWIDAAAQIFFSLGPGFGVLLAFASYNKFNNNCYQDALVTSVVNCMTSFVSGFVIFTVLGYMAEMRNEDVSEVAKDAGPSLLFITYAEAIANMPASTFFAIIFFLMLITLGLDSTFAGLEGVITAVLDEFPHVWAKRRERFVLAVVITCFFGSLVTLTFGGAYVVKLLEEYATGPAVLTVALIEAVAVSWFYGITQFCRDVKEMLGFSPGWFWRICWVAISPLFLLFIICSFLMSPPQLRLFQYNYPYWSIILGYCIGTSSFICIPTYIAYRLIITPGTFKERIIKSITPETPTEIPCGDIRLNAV
5-hydroxytryptamine receptor 4 (Homo sapiens), sequence (Q13639 whole entry): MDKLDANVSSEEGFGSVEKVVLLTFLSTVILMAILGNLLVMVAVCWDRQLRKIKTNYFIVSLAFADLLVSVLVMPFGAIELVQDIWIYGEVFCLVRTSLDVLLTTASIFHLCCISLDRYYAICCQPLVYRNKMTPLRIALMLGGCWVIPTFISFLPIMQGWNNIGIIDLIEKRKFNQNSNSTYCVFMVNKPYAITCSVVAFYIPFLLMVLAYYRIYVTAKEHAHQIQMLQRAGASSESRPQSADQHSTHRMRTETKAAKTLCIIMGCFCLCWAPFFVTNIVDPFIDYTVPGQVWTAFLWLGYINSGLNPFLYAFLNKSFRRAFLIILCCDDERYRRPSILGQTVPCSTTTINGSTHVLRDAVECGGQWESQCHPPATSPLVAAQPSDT

`Cc1cccc(OCCNc2cc(N3CCN(C)CC3)ccc2[N+](=O)[O-])c1` displayed an Activity in test [1] of 10%.
Same read-out and setting: for `COC(=O)c1ccc(N2CCN(C)CC2)cc1NCc1ccco1` the value was 31%; for `Cc1ccc(OCCNc2cc(N3CCN(C)CC3)ccc2[N+](=O)[O-])cc1C`, 67%.
A word on the Ki: it is the equilibrium dissociation constant of an inhibitor or competing ligand from its target. `COc1ccc(N2CCN(C)CC2)cc1NCCc1ccccc1` returned a Ki in test [2] of 1010 nM.
As to `CC(=O)Nc1cc(N2CCN(C)CC2)ccc1N(Cc1ccccc1)C(C)=O`, in [2], the outcome was inactive.
For the compound `O=[N+]([O-])c1ccc(N2CCNCC2)cc1NCc1ccc(Cl)cc1`, in test [2], the Ki came to 8 nM.
Turning to `CN1CCN(c2ccc([N+](=O)[O-])c(NCCOc3ccc(Cl)cc3)c2)CC1`, the Activity in test [1] was 21%.
Compound `O=[N+]([O-])c1ccc(N2CCNCC2)cc1NCc1ccccc1` showed an inhibition constant (Ki) in [2] of 28 nM.
In [1], `CN1CCN(c2ccc(C(=O)O)c(NCc3ccccc3)c2)CC1` displayed an Activity of 49%.
Same read-out and setting: the figure for `CN1CCN(c2ccc([N+](=O)[O-])c(NCc3ccccc3)c2)CC1` is 74%.
Still for that read-out and setting: for `COc1cc(N2CCN(C)CC2)ccc1NCc1ccccc1` the value was 49%.
`CN1CCN(c2ccc(OCc3ccccc3)c(NCc3ccccc3)c2)CC1` yielded a Ki in test [2] of 928 nM.
Consider `CN1CCN(c2ccc([N+](=O)[O-])c(-n3ncccc3=O)c2)CC1`, for which, in test [1], the Activity was 24%.
In test [2], `CN1CCN(c2ccc([N+](=O)[O-])c(-n3nc(-c4ccccc4)c4ccccc4c3=O)c2)CC1` gave a Ki of 1220 nM.
In turn, `COc1cccc(OCCNc2cc(N3CCN(C)CC3)ccc2[N+](=O)[O-])c1` showed an Activity in [1] of 22%.
In general, inhibition refers to the change of the read-out against control, counted positive when it falls. Read a low inhibition as little suppression. Regarding `CN1CCN(c2ccc([N+](=O)[O-])c(NCc3ccco3)c2)CC1`, the inhibition in test [3] was 61%; in test [4], below 40%; in test [5], below 40%; in test [6], above 90%; in test [7], below 40%; in test [8] it was 61%. In addition, the inhibition is above 90% in test [9]; 61% in test [10]; above 90% in test [11]; above 90% in test [12]; above 90% in [13].
Compound `CN1CCN(c2ccc(C#N)c(NCc3ccco3)c2)CC1` had a Ki in test [2] of 1360 nM. This lies in the single-digit micromolar range.
With `CN1CCN(c2ccc([N+](=O)[O-])c(NC(=O)c3ccccc3)c2)CC1`, the outcome in test [2] was inactive.
Regarding `CC(Nc1cc(N2CCNCC2)ccc1[N+](=O)[O-])c1ccccc1` (centres undefined), the Activity in test [1] is 13%.
Turning to `CN1CCN(c2ccc(NS(=O)(=O)c3ccccc3)c(NCc3ccccc3)c2)CC1`, the inhibition is 14% in test [14]; 61% in [15]; 2% in test [16]; 63% in test [17]; 6% in [18].
Take `CN1CCN(c2ccc(C(=O)O)c(NCc3ccco3)c2)CC1`: the result in test [2] was inactive.
On the same count and under the same terms, for `CN1CCN(c2ccc(C(=O)O)c(NCCc3ccccc3)c2)CC1` the value was “inactive”.
`COC(=O)c1cc(N2CCN(C)CC2)ccc1NCc1ccccc1` showed an inhibition constant Ki in test [2] of 1890 nM. This lies in the single-digit micromolar range.
On the same count and under the same terms, for `CN(C)CCc1c[nH]c2ccc(NS(=O)(=O)c3ccc4c(Cl)cccc4c3)cc12` the value was 0.7 nM.
On to `COc1ccc(CCNc2cc(N3CCN(C)CC3)ccc2[N+](=O)[O-])cc1OC`, for which the Activity in [1] is 24%.
For `COc1ccc(CCNc2cc(N3CCNCC3)ccc2[N+](=O)[O-])cc1OC`, the Activity in [1] is 59%.
On the same count and under the same terms, for `COC(=O)c1ccc(N2CCN(C)CC2)cc1NCc1ccccc1` the value was 72%.
In the case of `NCCNc1ccc([N+](=O)[O-])c(NCc2ccccc2)c1`, the affinity in test [2], expressed as Ki, was 1490 nM.
Consider `CN1CCN(c2ccc(NCc3ccccc3)c([N+](=O)[O-])c2)CC1`, for which the Activity in [1] was 64%.
As to `CN1CCN(c2ccc(C#N)c(NCc3ccccc3)c2)CC1`, affinity in test [19] was put at a Ki of 47 nM. Also, the inhibition in test [14] was 72%; in test [16], 65%; in test [17], 68%; in [18] it was 52%.
Turning to `CN1CCN(c2ccc([N+](=O)[O-])c(Oc3ccccc3)c2)CC1`, affinity in test [2] was put at a Ki of 27 nM.
As for `COc1ccc(N2CCN(C)CC2)cc1NCc1ccco1`, the Activity in test [1] stood at 53%.
In turn, `CN1CCN(c2ccc([N+](=O)[O-])c(NCCn3cccc3)c2)CC1` gave an Activity in test [1] of 78%.
Same read-out and setting: the figure for `CN1CCN(c2ccc(NCc3ccccc3)c(C(=O)O)c2)CC1` is 37%.
`CN1CCN(c2ccc([N+](=O)[O-])c(NCCc3ccccc3)c2)CC1`: the Ki in test [2] (hek293) came out at 119 nM.
For `CN1CCN(c2ccc([N+](=O)[O-])c(N(C)C(=O)c3ccccc3)c2)CC1`, in test [1], the Activity worked out at 49%.

(Values after ChEMBL document CHEMBL1140533, “Discovery of 5-HT6 receptor ligands based on virtual HTS” (Bioorg Med Chem Lett, 2007).)
